Assay results published in patent US9278954B2, “Pyrrolidine derivatives, pharmaceutical compositions and uses thereof” (Boehringer Ingelheim International GmbH, priority 2013, dated 2016).

Each molecule was assayed against human ACC2 (Homo sapiens (Human), UniProt O00763) (assay: ACC2 assay (spectrophotometric 384 well assay, NADH-linked kinetic method)). Conditions: hACC2 construct lacking the 128 N-terminal amino acids; 25° C., 340 nm over 15 minutes.
Assay type: biochemical
Experimental: Spectrophotometric 384 Well Assay
Malonyl CoA formation by acetyl CoA carboxylases is stoichometrically linked to the consumption of ATP. ACC2 activity is measured in a NADH-linked kinetic method measuring ADP generated during the ACC reaction using a coupled lactate dehydrogenase/pyruvate kinase reaction.
The protein is then expressed in insect cells using a baculoviral expression system. Protein purification is performed by anion exchange.
All compounds are dissolved in dimethyl sulfoxide (DMSO) to a concentration of 10 mM.
The enzymatic reaction is then started by addition of a mixture of NADH, acetyl
Coenzyme A (both […].) and ATP (500 uM f.c.). The decrease of the optical density (slope S) is then determined at 25° C. at a wavelength of 340 nm over 15 minutes in a spectrophotometric reader.
Each assay microtiter plate contains wells with vehicle instead of compound as controls for the non-inhibited enzyme (100% CTL; ‘HIGH’) and wells without acetyl-CoA as controls for non-specific NADH degradation (0% CTL; ‘LOW’).

Sequence of human ACC2 (O00763 129-2458): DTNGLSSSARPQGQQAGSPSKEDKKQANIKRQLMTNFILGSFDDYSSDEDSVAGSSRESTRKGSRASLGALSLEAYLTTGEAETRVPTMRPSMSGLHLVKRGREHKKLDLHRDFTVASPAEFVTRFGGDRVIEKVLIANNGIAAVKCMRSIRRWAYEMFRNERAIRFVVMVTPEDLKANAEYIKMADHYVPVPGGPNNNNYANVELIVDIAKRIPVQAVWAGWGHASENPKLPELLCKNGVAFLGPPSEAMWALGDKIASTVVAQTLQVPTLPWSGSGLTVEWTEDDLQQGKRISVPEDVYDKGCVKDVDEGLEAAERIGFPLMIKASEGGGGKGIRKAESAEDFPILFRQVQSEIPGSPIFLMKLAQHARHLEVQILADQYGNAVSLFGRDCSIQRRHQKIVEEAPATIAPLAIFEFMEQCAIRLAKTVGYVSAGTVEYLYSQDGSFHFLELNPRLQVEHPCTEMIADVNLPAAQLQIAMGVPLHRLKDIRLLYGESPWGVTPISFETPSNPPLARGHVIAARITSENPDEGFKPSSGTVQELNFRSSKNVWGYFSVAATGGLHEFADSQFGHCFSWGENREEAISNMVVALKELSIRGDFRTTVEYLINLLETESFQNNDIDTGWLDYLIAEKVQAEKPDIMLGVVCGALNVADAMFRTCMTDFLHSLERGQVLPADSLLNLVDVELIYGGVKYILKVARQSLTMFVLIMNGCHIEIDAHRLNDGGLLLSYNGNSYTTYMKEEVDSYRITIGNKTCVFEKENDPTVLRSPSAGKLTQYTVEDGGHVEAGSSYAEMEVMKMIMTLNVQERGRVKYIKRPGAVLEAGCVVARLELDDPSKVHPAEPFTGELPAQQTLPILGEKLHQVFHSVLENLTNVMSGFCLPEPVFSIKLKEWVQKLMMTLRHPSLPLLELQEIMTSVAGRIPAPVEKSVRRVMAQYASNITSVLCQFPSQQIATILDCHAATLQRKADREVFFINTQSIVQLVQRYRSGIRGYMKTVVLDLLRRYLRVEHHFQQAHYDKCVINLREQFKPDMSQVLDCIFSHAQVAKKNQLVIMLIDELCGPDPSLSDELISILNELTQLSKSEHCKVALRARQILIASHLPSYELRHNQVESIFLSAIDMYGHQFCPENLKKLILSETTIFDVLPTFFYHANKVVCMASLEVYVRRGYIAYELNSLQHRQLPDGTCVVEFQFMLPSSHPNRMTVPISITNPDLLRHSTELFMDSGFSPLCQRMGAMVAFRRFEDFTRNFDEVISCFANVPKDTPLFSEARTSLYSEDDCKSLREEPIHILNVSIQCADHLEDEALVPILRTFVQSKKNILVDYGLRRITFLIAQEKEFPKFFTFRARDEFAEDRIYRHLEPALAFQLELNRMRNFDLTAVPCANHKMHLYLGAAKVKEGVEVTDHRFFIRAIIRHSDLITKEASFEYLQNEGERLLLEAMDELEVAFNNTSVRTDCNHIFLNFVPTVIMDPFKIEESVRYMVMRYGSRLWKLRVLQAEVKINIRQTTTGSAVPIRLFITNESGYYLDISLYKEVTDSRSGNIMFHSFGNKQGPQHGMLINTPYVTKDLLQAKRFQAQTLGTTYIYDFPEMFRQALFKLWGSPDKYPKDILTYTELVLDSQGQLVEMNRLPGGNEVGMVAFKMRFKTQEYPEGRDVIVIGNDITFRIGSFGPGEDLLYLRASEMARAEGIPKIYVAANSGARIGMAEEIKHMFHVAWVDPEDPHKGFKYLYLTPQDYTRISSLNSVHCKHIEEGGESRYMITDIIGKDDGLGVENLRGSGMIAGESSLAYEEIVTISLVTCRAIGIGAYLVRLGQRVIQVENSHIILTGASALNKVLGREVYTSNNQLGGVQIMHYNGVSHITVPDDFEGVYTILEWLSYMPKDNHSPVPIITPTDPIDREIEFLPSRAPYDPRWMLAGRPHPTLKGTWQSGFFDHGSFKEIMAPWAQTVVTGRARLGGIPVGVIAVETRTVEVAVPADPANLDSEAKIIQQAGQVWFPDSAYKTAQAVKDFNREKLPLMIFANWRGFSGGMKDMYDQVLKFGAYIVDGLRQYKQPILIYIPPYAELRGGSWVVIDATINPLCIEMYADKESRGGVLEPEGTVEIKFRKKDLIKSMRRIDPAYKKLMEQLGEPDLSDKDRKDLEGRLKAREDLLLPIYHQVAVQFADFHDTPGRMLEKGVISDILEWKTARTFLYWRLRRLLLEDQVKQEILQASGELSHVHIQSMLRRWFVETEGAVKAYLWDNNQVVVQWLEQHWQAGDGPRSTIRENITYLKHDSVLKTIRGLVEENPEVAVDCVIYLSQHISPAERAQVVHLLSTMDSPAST

Row | Compound | IC50 [nM]
1 | CCNC(=O)C(C)c1ccc(O[C@@H]2CCN(c3cccc(C)c3)C2)cc1 (stereo partly drawn) [Example 7.16] | 410
2 | CCNC(=O)C(C)c1ccc(O[C@@H]2CCN(c3ccc(OCC4CCC4)cc3)C2)cc1 (stereo partly drawn) [Example 7.18] | 429
3 | CCNC(=O)C(C)c1ccc(O[C@@H]2CCN(c3cccc(Cl)c3)C2)cc1 (stereo partly drawn) [Example 7.19] | 435
4 | CCNC(=O)C(C)c1ccc(O[C@@H]2CCN(c3cccc(N(C)C)n3)C2)cc1 (stereo partly drawn) [Example 7.20] | 445
5 | CCNC(=O)C(C)c1ccc(O[C@@H]2CCN(c3ccc(OCCC4CC4)cc3)C2)cc1 (stereo partly drawn) [Example 7.21] | 454
6 | CCNC(=O)C(C)c1ccc(O[C@@H]2CCN(c3ccc(OC(C)C)cc3)C2)cc1 (stereo partly drawn) [Example 7.22] | 455
7 | CCNC(=O)C(C)c1ccc(O[C@@H]2CCN(c3ccc(OCC4CC4(F)F)nc3C#N)C2)cc1 (stereo partly drawn) [Example 7.23] | 470
8 | CCNC(=O)C(C)c1ccc(O[C@@H]2CCN(c3ccc(OCC4CC4)nc3)C2)cc1 (stereo partly drawn) [Example 7.24] | 473
9 | CCNC(=O)C(C)c1ccc(O[C@@H]2CCN(c3nc(C)ccc3F)C2)cc1 (stereo partly drawn) [Example 7.25] | 500
10 | CCNC(=O)C(C)c1ccc(O[C@@H]2CCN(c3ccc(F)c(C)n3)C2)cc1 (stereo partly drawn) [Example 7.27] | 563
11 | CCNC(=O)C(C)c1ccc(O[C@@H]2CCN(c3ccc(OC4CCCCC4)nc3)C2)cc1 (stereo partly drawn) [Example 7.28] | 583
12 | CCNC(=O)C(C)c1ccc(O[C@@H]2CCN(c3ccc(OC4CC4)cc3C)C2)cc1 (stereo partly drawn) [Example 7.29] | 600
13 | CCNC(=O)C(C)c1ccc(O[C@@H]2CCN(c3cccc(OC(C)CC)c3)C2)cc1 (stereo partly drawn) [Example 7.30] | 630
14 | CCNC(=O)C(C)c1ccc(O[C@@H]2CCN(c3ccc(F)c(Cl)c3)C2)cc1 (stereo partly drawn) [Example 7.31] | 639
15 | CCNC(=O)C(C)c1ccc(O[C@@H]2CCN(c3cccc(C)n3)C2)cc1 (stereo partly drawn) [Example 7.33] | 821
16 | CCNC(=O)C(C)c1ccc(O[C@@H]2CCN(c3ncc(OC4CCCC4)cc3F)C2)cc1 (stereo partly drawn) [Example 8.1, 2-(4-[1-(5-Cyclopentyloxy-3-fluoro-pyridin-2-yl)-(R)-pyrrolidin-3-yloxy]-phenyl)-N-ethyl-propionamide] | 104
17 | CCNC(=O)C(C)c1ccc(O[C@@H]2CCN(c3ccc(F)c(C(F)(F)F)n3)C2)cc1 (stereo partly drawn) [Example 8.2] | 353
18 | CCNC(=O)C(C)c1ccc(O[C@@H]2CCN(c3ncc(OC(C)C)cc3F)C2)cc1 (stereo partly drawn) [Example 8.3] | 543
19 | CCNC(=O)C(C)c1ccc(O[C@@H]2CCN(c3ccc(OC4CC4)cn3)C2)cc1 (stereo partly drawn) [Example 8.4] | 910
20 | CCNC(=O)C(C)c1ccc(O[C@@H]2CCN(c3ncc(OCC4CC4(F)F)cn3)C2)cc1 (stereo partly drawn) [Example 9.1, 2-(4-(1-[5-(2,2-Difluoro-cyclopropylmethoxy)-pyrimidin-2-yl]-(R)-pyrrolidin-3-yloxy)-phenyl)-N-ethyl-propionamide] | 444
21 | CCNC(=O)C(C)c1ccc(O[C@@H]2CCN(c3ccnc(C(F)(F)F)n3)C2)cc1 (stereo partly drawn) [Example 9.2] | 975
